Reference: patent US20210161997A1, “TREATING DISEASES VIA TARGETED MODULATION OF GENE SIGNALING NETWORKS” (Camp4 Therapeutics Corporation, priority 2018, published 2021)

How the values were obtained:
MECP2 mRNA [1] = test: qPCR of MECP2 mRNA in mouse hepatocytes; conditions: 10 uM, qPCR relative to DMSO control (FIG. 8)
Excerpt: (§1) Samples were amplified using Taqman probes from ThermoFisher.

MECP2 mRNA [2] = test: MECP2 mRNA in primary human hepatocytes (donor 1, donor 2); assay type: cell-based; conditions: two donors, indicated dosages vs DMSO (FIGS. 10A and 10B)
Outline: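 Cryopreserved primary human hepatocytes from separate donors were placed on serum-free or modified maintenance medium and then treated with compound for about 16–18 h. MECP2 mRNA was measured by TaqMan qPCR.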

SERPINC1 mRNA [3] = test: Quantitative PCR of SERPINC1 mRNA in mouse hepatocytes treated with compounds; assay type: cell-based; conditions: for SERPINC1 mRNA, Mouse Heps, 1 uM: compound 1 uM; for SERPINC1 mRNA, Mouse Heps, 10 uM: compound 10 uM
Method: as §1
In some examples, RQ Min and RQ Max values are also reported. RQ Min and RQ Max are the minimum and maximum relative levels of gene expression in the test samples, respectively. They were calculated using the confidence level set in the analysis settings and the confidence level was set to one standard deviation (SD). These values were calculated using standard deviation as follows: […].
Compounds were tested in hepatocytes for upregulation of SERPINC1 mRNA for identification of potential treatments of SERPINC1/AT III deficiency.

SERPINC1 mRNA [4] = test: RNA seq of SERPINC1 in MGH54 cells treated with select compounds; assay type: cell-based, human; conditions: compound 10 uM
ANGPTL3 = test: RNA-seq of ANGPTL3 expression in compound-treated primary human hepatocytes; assay type: cell-based; conditions: additional compounds (Table 13), linear fold change
Outline: (§2)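 Cryopreserved primary human hepatocytes from three donors, plated at 375,000 cells/well, switched to complete or modified maintenance medium, then dosed with compound (stocks at 1000× final) for about 18 h. Poly(A) mRNA was sequenced directionally, mapped to GRCh38 with STAR, and gene-level abundance (counts, FPKM) estimated with RSEM against GENCODE 24.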

SERPINC1 mRNA [5] = test: Quantitative PCR of SERPINC1 mRNA in primary human hepatocytes (Lonza Hu4282) treated with compounds; assay type: cell-based; conditions: quantitative PCR; for SERPINC1 mRNA, Lonza Hu4282, 1 uM / SERPINC1 mRNA, Lonza Hu4282, 10 uM: primary human hepatocytes Lonza Hu4282; for SERPINC1 mRNA, Lonza Hu4282, 1 uM / SERPINC1 mRNA, H8290, 1 uM: compound 1 uM; for SERPINC1 mRNA, Lonza Hu4282, 10 uM / SERPINC1 mRNA, H8290, 10 uM: compound 10 uM; for SERPINC1 mRNA, H8290, 1 uM / SERPINC1 mRNA, H8290, 10 uM: hepatocytes H8290
APOL1 mRNA = APOL1 mRNA in primary human hepatocytes treated with Momelotinib or metabolite M21; assay type: cell-based; conditions: 3.3 uM vs DMSO (FIG. 11, FIG. 12)
SERPINC1 = test: RNA-seq of SERPINC1 expression in compound-treated primary human hepatocytes; assay type: cell-based; conditions: significance FPKM ≥1, log 2(fold change) ≥0.5, q-value ≤0.05
Method: Human hepatocytes were obtained from two donors from Massachusetts General Hospital, namely MGH54 and MGH63, and one donor from Lonza, namely HUM4111B. Cryopreserved hepatocytes were cultured in plating media for 16 hours, transferred to maintenance media for 4 hours. Cultured on serum-free media for 2 hours, then a compound was added. The hepatocytes were maintained on the serum-free media for 16 hours prior to gene expression analysis. Primary human hepatocytes were stored in the vapor phase of a liquid nitrogen freezer (about -130° C.). Human hepatocytes cultured as described above were plated in 24-well format, adding 375,000 cells per well in a volume of 500 ul plating medium. Four hours before treatment, cells were washed with PBS and the medium was changed to either: fresh maintenance medium (complete) or modified maintenance medium. Compound stocks were prepared at 1000× final concentration and added in a 2-step dilution to the medium to reduce risk of a compound precipitating out of solution when added to the cells, and to ensure reasonable pipetting volumes. […] The plate was mixed by carefully swirling and after all wells were treated and returned to the incubator overnight. If desired, separate plates/wells were treated with vehicle-only controls and/or positive controls. If using multi-well plates, controls were included on each plate. After about 18 hours, cells were harvested for further analysis, e.g., ChIP-seq, RNA-seq, ATAC-seq, etc. This protocol is a modified version of the following protocols: MagMAX mirVana Total RNA Isolation Kit User Guide (Applied Biosystems #MAN0011131 Rev B.0), NEBNext Poly(A) mRNA Magnetic Isolation Module ([…]), and NEBNext Ultra Directional RNA Library Prep Kit for Illumina ([…]) (New England Biosystems #E74901). […] Two hundred μl of Lysis Binding Mix was used per well of the multiwell plate containing adherent cells (usually a 24-well plate). For mRNA isolation and library prep, the NEBNext Poly(A) mRNA Magnetic Isolation Module and Directional Prep kit was used. RNA isolated from cells above was quantified, and prepared in […] of each sample in 50 μl of nuclease-free water. This protocol may be run in microfuge tubes or in a 96-well plate. […] Genomic alignments were converted to transcriptome alignments based on reference transcript annotations from the Human GENCODE Gene Set release 24 (Harrow et al., Genome Res. […] Using unique and multimapped transcriptomic alignments, gene-level abundance estimates were computed using RSEM version 1.3.0 (Li and Dewey, BMC Bioinformatics (2011) 12:323) in a strand-aware manner, and including confidence interval sampling calculations, to arrive at posterior mean estimates (PME) of abundances (counts and normalized FPKM-fragments per kilobase of exon per million mapped fragments) from the underlying Bayesian model. Standard QC were applied (read integrity, mapping statistics, library complexity, fragment bias) to remove unsatisfactory samples. Differential gene expression was computed using the negative binomial model implemented by DESeq2 version 1.16.1 (Love et al., Genome Biol. (2014) 15(12):550). […] RNA-seq signals were also normalized by read depth and visualized using the UCSC browser. To identify small molecules that modulate target gene expression, primary human hepatocytes were prepared as a monoculture, and at least one small molecule compound was applied to the cells. RNA-seq was performed to determine the effects of the compounds on the expression of the target genes in hepatocytes. Fold change was calculated by dividing the level of expression in the cell system that had been perturbed by the level of expression in an unperturbed system.

UGT1A1 = test: RNA-seq of UGT1A1 expression in compound-treated primary human hepatocytes; assay type: cell-based
Outline: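 Cryopreserved primary human hepatocytes from three donors were plated in 24-well format, then treated with compound diluted from 1000× stocks in serum-free maintenance medium for about 16–18 h. Poly(A) RNA-seq log2 fold change was computed against vehicle/pan-experiment controls. Significance required FPKM ≥1, log2FC ≥0.5 and q ≤0.05.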

HMBS = test: RNA-seq of HMBS expression in compound-treated primary human hepatocytes; assay type: cell-based
Method: Human hepatocytes were obtained from two donors from Massachusetts General Hospital, namely MGH54 and MGH63, and one donor from Lonza, namely HUM4111B. Cryopreserved hepatocytes were cultured in plating media for 16 hours, transferred to maintenance media for 4 hours. Cultured on serum-free media for 2 hours, then a compound was added. The hepatocytes were maintained on the serum-free media for 16 hours prior to gene expression analysis. Primary human hepatocytes were stored in the vapor phase of a liquid nitrogen freezer (about −130° C.).
Human hepatocytes cultured as described above were plated in 24-well format, adding 375,000 cells per well in a volume of 500 ul plating medium. Four hours before treatment, cells were washed with PBS and the medium was changed to either: fresh maintenance medium (complete) or modified maintenance medium.
Compound stocks were prepared at 1000× final concentration and added in a 2-step dilution to the medium to reduce risk of a compound precipitating out of solution when added to the cells, and to ensure reasonable pipetting volumes. […]
For mRNA isolation and library prep, the NEBNext Poly(A) mRNA Magnetic Isolation Module and Directional Prep kit was used. RNA isolated from cells above was quantified, and prepared in […] of each sample in 50 μl of nuclease-free water. […]

FN1 = test: RNA-seq of FN1 expression in compound-treated primary human hepatocytes; assay type: cell-based; conditions: perturbed vs unperturbed, significance FPKM ≥1, log 2(fold change) ≥0.5, q-value ≤0.05
Outline: as §2

Row | SMILES | SERPINC1 mRNA, Mouse Heps, 1 uM (SERPINC1 mRNA [3]) | SERPINC1 mRNA, Mouse Heps, 10 uM (SERPINC1 mRNA [3]) | SERPINC1, MGH54 (RNA seq), 10 uM (SERPINC1 mRNA [4]) | SERPINC1 mRNA, Lonza Hu4282, 1 uM (SERPINC1 mRNA [5]) | SERPINC1 mRNA, Lonza Hu4282, 10 uM (SERPINC1 mRNA [5]) | other results
1 | C=CCNC1=C2C[C@@H](C)C[C@H](OC)[C@H](O)[C@@H](C)/C=C(\C)[C@H](OC(N)=O)[C@@H](OC)/C=C\C=C(/C)C(=O)NC(=CC1=O)C2=O [17-AAG (Tanespimycin), Tanespimycin] |  |  |  |  |  | MECP2 mRNA change in mouse hepatocytes (MECP2 mRNA [1]): increased; MECP2 mRNA change in primary human hepatocytes (MECP2 mRNA [2]): dose-dependent increase
2 | COc1ccc(-c2ccc3c(N4CCOC[C@@H]4C)nc(N4CCOC[C@@H]4C)nc3n2)cc1CO [AZD8055] | 3.2 | 3.4 | 0 | 1.3 | 1.61 | ANGPTL3-LINEAR FOLD CHANGE (ANGPTL3): 0.4965
3 | O=C1CCc2c(Oc3ccc4c(c3)[C@@H]3[C@H](O4)[C@H]3c3nc4cc(C(F)(F)F)ccc4[nH]3)ccnc2N1 [Lifirafenib (BGB-283)/BeiGene] | 0.81 | 1.1 | 1.43 | 1.05 | 1.21 | SERPINC1 mRNA, H8290, 1 uM (SERPINC1 mRNA [5]): 1.1; SERPINC1 mRNA, H8290, 10 uM (SERPINC1 mRNA [5]): 2.1
4 | N#CCNC(=O)c1ccc(-c2ccnc(Nc3ccc(N4CCOCC4)cc3)n2)cc1 [Momelotinib] |  |  |  |  |  | APOL mRNA change in primary human hepatocytes (APOL1 mRNA): Downregulation; SERPINC1 Fold Change (Log2) (SERPINC1): 0.93 Log2; UGT1A1 Fold Change (Log2) (UGT1A1): 1.05 Log2
5 | CC(=O)NCC(=O)N1[C@@H]2CC[C@H]1c1ccc(Nc3ncc(C(F)(F)F)c(NC4CCC4)n3)cc12 [PF-3814735] | 1.2 | 1.86 | 2.43 | 0.99 | 2.6 | ANGPTL3-LINEAR FOLD CHANGE (ANGPTL3): 0.4383
6 | CN1CCN(c2nc(C3=C(c4c[nH]c5ccccc45)C(=O)NC3=O)c3ccccc3n2)CC1 [Sotrastaurin] |  |  |  |  |  | HMBS Fold Change (Log2) (HMBS): 0.78 Log2; UGT1A1 Fold Change (Log2) (UGT1A1): 0.88 Log2; FN1 Fold Change (Log2) (FN1): −0.81 Log2
7 | CCn1c(=O)c(-c2cc[nH]n2)cc2c(C)nc(N)nc21 [Voxtalisib] | 1.23 | 2.4 | 0 | 1.1 | 1.24 | SERPINC1 mRNA, H8290, 1 uM (SERPINC1 mRNA [5]): 1.2; SERPINC1 mRNA, H8290, 10 uM (SERPINC1 mRNA [5]): 1.5
